Laboratory results as given in publication PMC9116245, “New 1,2,3-triazole linked ciprofloxacin-chalcones induce DNA damage by inhibiting human topoisomerase I& II and tubulin polymerization” (Journal of Enzyme Inhibition and Medicinal Chemistry, 2022).
Read-outs that look alike come from different tables or passages of the source. One block for each molecule: values may come before it.

Columns and labels:
leukemia SR = tested on: leukemia SR; parameters: method as in PMID 33248713, PMID 24090914; details: Figure 1; cited from earlier work
Caco-2 = experiment: MTT assay; format: cell-based; details: Homo sapiens; Caco-2, MTT assay, 24 h incubation
Description: (§1) The proliferation of colorectal cancer cells (HCT116, HT29 and Caco-2) was assessed using MTT assay as previously reported. Cells were treated with increasing concentrations of 1, 5, 10, 20, 40, 80 or 100 µM of CP hybrids 4a-j, doxorubicin, or DMSO. See Supplementary Appendix A.

HCT116 = experiment: MTT assay; format: cell-based; details: Homo sapiens, HCT-116, 24 h incubation
Description: as §1

HT-29 = experiment: MTT assay; format: cell-based; details: Homo sapiens; HT-29, MTT assay, 24 h incubation
Description: as §1

[1] = tested on: Human Embryonic Kidney (HEK) 293 cells; experiment: Cytotoxicity assay with non-cancerous cells (MTS); format: cell-based; details: Homo sapiens; HEK293, 72 h incubation
[2] = tested on: non small lung cancer A459; parameters: method as in PMID 27555286; details: non small lung cancer A459, printed in Figure 1; cited from earlier work
[3] = tested on: normal lung fibroblast WI-38; parameters: method as in PMID 27555286; details: normal lung fibroblast WI-38, printed in Figure 1; cited from earlier work
[4] = parameters: method as in PMID 33248713, PMID 24090914; details: Figure 1; cited from earlier work
MCF-7 cancer cell lines = tested on: MCF-7 cancer cell lines; parameters: method as in earlier work; details: cited from earlier work
tubulin polymerisation = experiment: Tubulin immunofluorescence microscopy in HCT116 cells; format: cell-based, human; details: HCT116, IC50 of compound, 36 h
Description: (§2) The process of tubulin polymerisation in the cells is important for the completion of mitosis and is targeted for cancer treatment. It has been reported that the suppression of tubulin polymerisation will arrest the cells at the G2/M and it eventually leads to cell death. To test the tubulin-disruptive effect of the CP hybrids, HCT116 cells were analysed by immunocytochemistry. HCT116 cells were incubated for 36 h with IC50 of the CP hybrids (4a, 4b, 4e, 4i, and 4j), nocodazole (a well-known tubulin polymerisation inhibitor, as a positive control), DMSO or Paclitaxel (a well-known tubulin polymerisation inducer, as a negative control), and tubulin was visualised by immunofluorescence microscopy. An antibody for α-tubulin was used. […] Moreover, a Western blot was performed to verify the tubulin polymerisation inhibition ability of the synthesised compounds (Figure 8(B)). The level of polymerised tubulin was decreased in HCT116 cells treated with IC50 values of CP hybrids 4a, 4b, 4e, 4i, 4j, or nocodazole.
HCT116 cells were cultured and treated with the IC50 of the potent compounds (4a, 4b, 4e, 4i, and 4j) or DMSO (control), fixed, permeabilized, and they were incubated with either γH2AX or α-tubulin antibody as the reported procedure in the literature. Confocal images were captured using a Confocal Microscope with a 63X objective. All images were processed using ImageJ software. See Supplementary Appendix A.

polymerised tubulin = experiment: Western blot of polymerised tubulin in HCT116 cells; format: cell-based, human; details: HCT116, IC50 values of compounds
Description: as §2
Western blotting analysis for HCT116 cells was performed according to the reported procedure in the literature[77–79] to determine the effects of CP hybrids; 4a, 4b, 4e, 4i, and 4j on the expression of polymerised tubulin, γH2AX, p-ATR, p-CHK1, and p-Cdc25C by using the appropriate antibody. See Supplementary Appendix A.

SMILES: CC[C@@]1(O)C(=O)OCc2c1cc1n(c2=O)Cc2cc3ccccc3nc2-1 [Camptothecin]
IC50 (leukemia SR): 3320 nM

IC50 (Caco-2): 4150 ± 1080 nM
IC50 (HCT116): 1220 ± 270 nM
IC50 (HT-29): 880 ± 580 nM
SMILES: COc1cccc2c1C(=O)c1c(O)c3c(c(O)c1C2=O)C[C@@](O)(C(=O)CO)C[C@@H]3O[C@H]1C[C@H](N)[C@H](O)[C@H](C)O1 [Doxorubicin, reference compound]
IC50 [1]: 47.5 nM

SMILES: O=C(CN1CCN(c2cc3c(cc2F)c(=O)c(C(=O)O)cn3C2CC2)CC1)Nc1ccc(Cl)cc1 [III]
IC50 [2]: 14800 nM
IC50 [3]: > 100000 nM

SMILES: COc1cc(/C=C/C(=O)c2ccc(NC(=O)N3CCN(c4cc5c(cc4F)c(=O)c(C(=O)O)cn5C4CC4)CC3)cc2)cc(OC)c1OC [II]
IC50 (leukemia SR): 640 nM

SMILES: O=C(CN1CCN(c2cc3c(cc2F)c(=O)c(C(=O)O)cn3C2CC2)CC1)Nc1ccc(C(=O)/C=C/c2ccccc2)cc1 [I]
GI50 [4]: 430 to 39600 nM

SMILES: CCOc1cc(/C=C/C(=O)c2cccc(O)c2)ccc1OCc1cn(-c2cc(Cl)ccc2O)nn1 [X]
IC50 (MCF-7 cancer cell lines; MCF-7, 24 h): 1270 nM
IC50 (MCF-7 cancer cell lines; MCF-7, 48 h): 20 nM

SMILES: COC(=O)Nc1nc2ccc(C(=O)c3cccs3)cc2[nH]1 [nocodazole, reference compound]
tubulin polymerisation, morphological changes by immunofluorescence (tubulin polymerisation): significant tubulin polymerisation inhibition
level of polymerised tubulin, Western blot (polymerised tubulin): decreased
